Source: BindingDB's records for doi:10.1016/j.bmcl.2004.02.025 (Universidade Federal De Minas Gerais, 2004)

Experiments:
[1] = Inhibitory concentration of compound against glyceraldehyde-3-phosphate dehydrogenase was determined
[2] = Inhibitory concentration against glyceraldehyde-3-phosphate dehydrogenase was determined as log 1/IC50
[3] = as above; remark: listed apart in the source

| SMILES | IC50 [2] [µM] | other results |
| --- | --- | --- |
| CCOC(=O)c1cn([C@@H]2O[C@H](COC(=O)c3ccccc3)[C@@H](OC(=O)c3ccccc3)[C@H]2OC(=O)c2ccccc2)c2ccc(Cl)cc2c1=O |  | IC50 [1]: 29 µM |
| COc1c2c(cc3oc(=O)ccc13)OCC2 | 347 |  |
| O=c1oc2ccccc2cc1-c1cccc(O)c1 | 67.6 |  |
| C=C(C)[C@H]1Cc2cc3ccc(=O)oc3cc2O1 | 145 |  |
| C=C(C)[C@@H]1Cc2c(cc(O)c3ccc(=O)oc23)O1 | 191 |  |
| CC(=O)Oc1ccc2oc(=O)c(-c3ccc4c(c3)OCO4)cc2c1 | 64.6 |  |
| C=C(C)[C@H]1O[C@@H]1c1c(O)ccc2ccc(=O)oc12 | 129 |  |
| CC1=C2c3c(ccc4ccc(=O)oc34)OCC2OC1=O (centres undefined) | 74.1 |  |
| CC(=O)Oc1ccc(-c2cc3cc(OC(C)=O)ccc3oc2=O)cc1 | 52.5 |  |
| O=c1oc2ccc(/N=C/c3ccc[nH]3)cc2cc1-c1ccc2c(c1)OCO2 | 56.2 |  |
| O=c1oc2ccccc2cc1-c1ccc(O)cc1 [3-(4-Hydroxy-phenyl)-chromen-2-one] | 38.9 |  |
| CC(=O)Oc1ccc(-c2cc3cc(OC(C)=O)c(OC(C)=O)cc3oc2=O)cc1OC(C)=O [6,7-diacetoxy-3-[30,40-diacetoxyphenyl]-coumarin] | 17.8 |  |
| COc1cc2ccc(=O)oc2cc1O [7-hydroxy-6-methoxy-2H-chromen-2-one] | 257 |  |
| CC1(C)C=Cc2cc3ccc(=O)oc3cc2O1 [8,8-Dimethyl-8H-pyrano[3,2-g]chromen-2-one] | 195 |  |
| COc1ccc(-n2nc3c4ccccc4n([C@@H]4O[C@H](COC(=O)c5ccccc5)[C@@H](OC(=O)c5ccccc5)[C@H]4OC(=O)c4ccccc4)cc-3c2=O)cc1 [Adenosine analogue] |  | IC50 [1]: 45 µM |
| COc1cccc(C(=O)NC2C(O)[C@@H](COP(=O)([O-])OP(=O)(O)OC[C@H]3O[C@@H]([n+]4ccc(C(N)=O)cc4)C(O)C3O)O[C@H]2n2cnc3c(NCc4cccc5ccccc45)ncnc32)c1 (some centres undefined) [Adenosine analogue] |  | IC50 [1]: 0.1 µM |
| C=CC(C)(C)c1cc2cc3c(cc2oc1=O)O[C@H](C(C)(C)O)C3 [Chalepin] |  | IC50 [3]: 55 µM |
| COc1cccc(C(=O)NC2C(O)[C@@H](CO)O[C@H]2n2cnc3c(NCc4cccc5ccccc45)ncnc32)c1 (stereo partly drawn) [N-((2R,5R)-4-Hydroxy-5-hydroxymethyl-2-{6-[(naphthalen-1-ylmethyl)-amino]-purin-9-yl}-tetrahydro-furan-3-yl)-3-methoxy-benzamide] |  | IC50 [1]: 12 µM |
| COc1cccc(C(=O)NC2C(O)[C@@H](COP(=O)(O)O)O[C@H]2n2cnc3c(NCc4cccc5ccccc45)ncnc32)c1 (stereo partly drawn) [Phosphoric acid mono-((2R,5R)-3-hydroxy-4-(3-methoxy-benzoylamino)-5-{6-[(naphthalen-1-ylmethyl)-amino]-purin-9-yl}-tetrahydro-furan-2-ylmethyl) ester] |  | IC50 [1]: 5 µM |
| COc1ccc2ccc(=O)oc2c1CC=C(C)C [osthole] | 209 |  |
| O=c1ccc2ccc(O)cc2o1 [umbelliferone] | 617 |  |

Continued, in another order:

| IC50 [2] [µM] | SMILES | other results |
| --- | --- | --- |
| 123 | CC1(C)C=Cc2c(ccc3ccc(=O)oc23)O1 |  |
| 56.2 | O=c1oc2ccc(/N=C/c3ccco3)cc2cc1-c1ccc2c(c1)OCO2 |  |
| 17 | CC(=O)Oc1cccc(-c2cc3cc(OC(C)=O)ccc3oc2=O)c1 |  |
| 30.9 | O=c1oc2c(O)cccc2cc1-c1ccc2c(c1)OCO2 |  |
| 123 | CC(=O)Oc1ccc2oc(=O)c(-c3ccccc3)cc2c1 |  |
| 162 | C=CC(C)(C)c1cc2ccc(O)cc2oc1=O |  |
| 85.1 | COc1cccc(-c2cc3cc(OC(C)=O)ccc3oc2=O)c1 |  |
| 692 | O=c1ccc2ccccc2o1 [2H-chromen-2-one] |  |
